IC50 and Kd data for 3 compounds are collected here from ChEMBL document CHEMBL1139447, “Discovery of novel PTP1b inhibitors” (Bioorg Med Chem Lett, 2004).

pIC50, pKd: −log10 of the molar value.

What is called pIC50 is −log10 of the IC50, conventionally taken in molar units. A lower pIC50 goes with a high IC50. As a reminder, the pKd is the Kd on a negative log10 scale, so that one unit is a factor of ten. Read a high pKd as a low Kd.

The assay is described as follows: Compound was tested for inhibition of Protein tyrosine phosphatase (PTP1B).

Consider `O=c1c(O)c(-c2ccccc2)c1=O`, for which the pIC50 is 4.22 and the pKd is 4.60.

In turn, `O=Cc1ccccn1` [2-PYRIDINECARBOXALDEHYDE] had a pIC50 below 3.52 and a pKd of 4.00.

Turning to `O=CCCc1ccccc1` [DIHYDROCINNAMALDEHYDE], the pIC50 was below 3.52 and the pKd was 3.82.
